Test systems include M14 melanoma; SF-268 CNS; MDA-MB-435; HOP-62 NSCLC; NCI-H522 lung; MDA-MB-231 breast; NCI-H460 lung; LOX IMVI melanoma; NCI/ADR-RES ovarian; CAKI-1 renal.
Holding throughout (assay): growth of human tumour cells (NCI), 48 h

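All cell lines were grown in 96-well plates and treated with compound for 48 hours. The concentration for 50% growth inhibition is given as GI50. TGI denotes the concentration required for complete inhibition of growth.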

Consider `COc1nc(N)nc2c1ncn2[C@@H]1O[C@H](CO)[C@@H](O)[C@@H]1O`, for which the GI50 with M14 melanoma, in the test with SF-268 CNS, with MDA-MB-435, in the test on HOP-62 NSCLC, with NCI-H522 lung and in the test on MDA-MB-231 breast was over 100 µM throughout. For the same compound, the GI50 with NCI-H460 lung, in the test with LOX IMVI melanoma, in the test on NCI/ADR-RES ovarian and in the test on CAKI-1 renal was over 100 µM throughout. Also, the TGI in the test on M14 melanoma, in the test with SF-268 CNS, in the test with MDA-MB-435, in the test on HOP-62 NSCLC, in the test on NCI-H522 lung and with MDA-MB-231 breast was over 100 µM each time. Moreover, the TGI with NCI-H460 lung, in the test on LOX IMVI melanoma, with NCI/ADR-RES ovarian and in the test on CAKI-1 renal was over 100 µM throughout.

In the case of `Cc1nn(-c2ccccc2)c2nc3c(nc12)C1=NCCN1C(c1ccc(Cl)cc1)N3` (stereo not given), the GI50 with M14 melanoma was 1.98 µM; in the test with SF-268 CNS, 5.61 µM; in the test with MDA-MB-435 it was 1.85 µM; in the test on HOP-62 NSCLC, 3.26 µM; with NCI-H522 lung, 2.83 µM; in the test on MDA-MB-231 breast, 1.81 µM. Moreover, the GI50 is 2.19 µM in the test on NCI-H460 lung, 1.94 µM in the test with LOX IMVI melanoma, 13.4 µM in the test with NCI/ADR-RES ovarian and 13.2 µM in the test with CAKI-1 renal. Moreover, the TGI in the test on M14 melanoma was 3.86 µM; with SF-268 CNS, 17.6 µM; in the test on MDA-MB-435, 3.74 µM; in the test on HOP-62 NSCLC, 8.31 µM; in the test with NCI-H522 lung, 7.14 µM; in the test with MDA-MB-231 breast, 4.95 µM. The TGI was determined as 5.03 µM in the test with NCI-H460 lung, 3.91 µM in the test on LOX IMVI melanoma, 32 µM with NCI/ADR-RES ovarian and 27.3 µM with CAKI-1 renal.

Turning to `CCCC(=O)Nc1ccc2c(c1)CN1C(=O)c3ccccc3C1=N2`, the TGI in the test with M14 melanoma, with SF-268 CNS, in the test on MDA-MB-435, with HOP-62 NSCLC, in the test with NCI-H522 lung and with MDA-MB-231 breast was over 100 µM throughout. In addition, the TGI in the test with NCI-H460 lung, in the test with LOX IMVI melanoma, in the test with NCI/ADR-RES ovarian and with CAKI-1 renal was over 100 µM in each case.

On to `COc1ccc2c(c1)/C(=C\c1c(Cl)n(C)c3ccccc13)C(=O)N2`, for which the GI50 was 1.61 µM in the test on M14 melanoma; 2.87 µM in the test with SF-268 CNS; 0.286 µM in the test with MDA-MB-435; 1.44 µM in the test on HOP-62 NSCLC; 0.726 µM in the test with NCI-H522 lung; 0.399 µM with MDA-MB-231 breast. In addition, the GI50 is 0.459 µM with NCI-H460 lung, 0.83 µM in the test on LOX IMVI melanoma, 0.629 µM in the test with NCI/ADR-RES ovarian and 1.1 µM in the test on CAKI-1 renal. For the same compound, the TGI is 23.8 µM in the test with M14 melanoma; 35.1 µM in the test on SF-268 CNS; 1.26 µM with MDA-MB-435; 24 µM with HOP-62 NSCLC; 7.14 µM in the test with NCI-H522 lung; 9.53 µM with MDA-MB-231 breast. The TGI was 15.9 µM in the test with NCI-H460 lung, over 100 µM with LOX IMVI melanoma, 2.03 µM with NCI/ADR-RES ovarian and 13.6 µM in the test on CAKI-1 renal.

For the compound `CS(=O)(=O)c1ccc(Oc2cc(F)cc(C#N)c2)c2c1[C@H](O)C(F)(F)C2`, the GI50 in the test on M14 melanoma, with SF-268 CNS, in the test with MDA-MB-435, in the test with HOP-62 NSCLC, with NCI-H522 lung and in the test with MDA-MB-231 breast was over 100 µM each time. Besides, the GI50 with NCI-H460 lung, in the test with LOX IMVI melanoma, with NCI/ADR-RES ovarian and in the test on CAKI-1 renal was over 100 µM each time. Also, the TGI in the test on M14 melanoma, with SF-268 CNS, in the test on MDA-MB-435, in the test with HOP-62 NSCLC, in the test with NCI-H522 lung and in the test with MDA-MB-231 breast was over 100 µM each time. Also, the TGI in the test on NCI-H460 lung, with LOX IMVI melanoma, with NCI/ADR-RES ovarian and in the test on CAKI-1 renal was over 100 µM in each case.

Regarding `O=C(NCCNc1nccc(-c2c(-c3ccc(F)cc3)nc3sccn23)n1)c1ccccc1`, the GI50 in the test with M14 melanoma was 7.97 µM; in the test with SF-268 CNS, 12.4 µM; with MDA-MB-435 it was 2.69 µM; with HOP-62 NSCLC, 16.9 µM; with NCI-H522 lung, 11.1 µM; with MDA-MB-231 breast, 15.2 µM. In addition, the GI50 is 3.28 µM in the test with NCI-H460 lung, 4.3 µM in the test with LOX IMVI melanoma, 7.13 µM in the test with NCI/ADR-RES ovarian and 2.48 µM in the test on CAKI-1 renal. In addition, the TGI with M14 melanoma is 22.3 µM; with SF-268 CNS, over 100 µM; with MDA-MB-435, 14 µM; in the test on HOP-62 NSCLC it was 34.7 µM; with NCI-H522 lung, 27.4 µM; with MDA-MB-231 breast it was 67.2 µM. Further, the TGI in the test with NCI-H460 lung was determined as 22.3 µM; in the test on LOX IMVI melanoma, 31.4 µM; with NCI/ADR-RES ovarian it was 76.4 µM; in the test with CAKI-1 renal it was 25.1 µM.

As for `Brc1ccccc1C=NC12CC3CC(CC(C3)C1)C2`, the TGI in the test with M14 melanoma, with SF-268 CNS, in the test with MDA-MB-435, in the test with HOP-62 NSCLC, with NCI-H522 lung and in the test on MDA-MB-231 breast was over 100 µM throughout. The TGI in the test with NCI-H460 lung, in the test on LOX IMVI melanoma, in the test on NCI/ADR-RES ovarian and with CAKI-1 renal was over 100 µM each time.

Consider `CC(=O)OC1Oc2cc(C)c(C)cc2-c2oc(=O)c(-c3ccc(F)cc3)cc21` (stereo not given), for which the GI50 with M14 melanoma was 3.99 µM; in the test on SF-268 CNS, 9.32 µM; in the test with MDA-MB-435, 1.59 µM; with HOP-62 NSCLC, 12.9 µM; in the test with NCI-H522 lung, 4.53 µM; with MDA-MB-231 breast it was 8.34 µM. For the same compound, the GI50 in the test with NCI-H460 lung is 3.9 µM; in the test with LOX IMVI melanoma it was 5.61 µM; in the test with NCI/ADR-RES ovarian, 2.86 µM; with CAKI-1 renal, 15.8 µM. For the same compound, the TGI is over 100 µM in the test on M14 melanoma; over 100 µM in the test on SF-268 CNS; 4.21 µM in the test on MDA-MB-435; 72.5 µM in the test with HOP-62 NSCLC; 19 µM in the test with NCI-H522 lung; 65 µM in the test with MDA-MB-231 breast. In addition, the TGI is 24.4 µM in the test with NCI-H460 lung, over 100 µM with LOX IMVI melanoma, 9.34 µM with NCI/ADR-RES ovarian and over 100 µM with CAKI-1 renal.

For the origin of these results see PubChem BioAssay (NCI).
